Here are results for 9 molecules from patent US9873670B2, “Arylquinoline and analog compounds and use thereof to treat cancer” (UNIVERSITY OF KENTUCKY RESEARCH FOUNDATION, priority 2013, dated 2018).

One data set concerns Par-4 secretion. Description: Par-4 secretion, cells not specified. It is filed as cell-based.
Data set [1] has as its system mouse embryonic fibroblast (MEF) cells. Description: Par-4 secretion from normal mouse fibroblasts (Western blot of conditioned medium). It is filed as cell-based. To be noted: for level of Par-4 secretion, structure-activity comparison among analogs: normal mouse fibroblasts, conditions not toxic to the cells. As to the method:
In another aspect, the subject technology provides assays for screening test compounds that interfere with vimentin binding to PAR-4 or which cause release of vimentin-bound PAR-4. In a typical assay, cells, such as HEL cells, are seeded onto an appropriate support, such as 60-mm plates containing supplemented growth medium (e.g., supplemented with 0.1% serum) at a desired confluency, such as 40-70% confluency, and treated with the test compound (e.g., 500 nM) or control vehicle. The cells are allowed to grow for a period of time, such as 24 hours, after which the conditioned medium (CM) is concentrated (e.g., concentrated 30× to 100 μl using Millipore tubes (Amicon Ultra centrifugal filters, Ultracel-10K) by 15 min centrifugation at 4500 rpm). The concentrated CM is then subjected to co-immunoprecipitation using detectably labeled PAR-4 and vimentin antibodies in the presence of various concentrations of purified PAR-4 and the precipitated proteins are resolved by SDS-PAGE and analyzed by Western blot analysis. The amount of immunoprecipitated PAR-4-vimentin complex is compared to that of control samples. For example, chemiluminescent signals may be quantified in the BIO-RAD Molecular Imager ChemiDoc XRS+Imaging system using Quantity One software. Induction of Par-4 secretion by the test drug (e.g., 500 nM), as judged by this Western blot analysis procedure, will indicate dissociation of Par-4 from vimentin. […] For such experiments, cells may be treated with the test drug (e.g., 500 nM) or vehicle for an appropriate period of time, such as 24 hours, and then cell lysates are prepared and subjected to immunoprecipitation using an appropriate amount of a Par-4 antibody, vimentin antibody or control IgG antibody by using any standard immunoprecipitation procedure. Following […], the complexes are resolved, preferably by Western blot analysis as described above. If the drug inhibits the binding of Par-4 to vimentin, it will be reflected in the lack of co-immunoprecipitation of Par-4 with the vimentin antibody, and co-immunoprecipitation of vimentin with the Par-4 antibody.
Co-Immunoprecipitation and Western blot analysis: Protein extracted from cell lysates was filtered, pre-cleared with 25 μL (bed volume) of protein G-Sepharose beads and immunoprecipitated with 1 μg of respective antibodies. The eluted proteins were resolved by SDS-PAGE, and subjected to Western blot analysis as described.
To identify Par-4 secretagogues, we synthesized and screened 3-arylquinolines as well as related quinolones and quinothiolones for the secretion of Par-4 protein from normal fibroblasts under conditions that are not toxic to the cells.
We screened representative members of each of these heterocyclic families on a compound-by-compound basis for the secretion of Par-4 protein from normal mouse fibroblasts under conditions that were not toxic to the cells. Initial expectations were that these heterocycles would serve as Nutlin-3a surrogates and inhibit MDM2, but studies reported herein established a completely different mechanism of action, reflecting that the structural dissimilarities between these heterocycles and Nutlin-3a outweighed the similarities that led to their initial selection for screening.
On the technique in general: Immunoblotting shows a protein as a band on a membrane.

A word on the melting point: it is the temperature, or range, at which the solid turns liquid. With `CN(C)c1ccc2cc(-c3cccc(F)c3)c(N)nc2c1` [Arylquin 2, 3-(3-fluorophenyl)-N^7,N^7-dimethylquinoline-2,7-diamine], the melting point is 147 to 148 °C.

As for `C[C@H]1CCC/C=C/[C@@H]2C[C@H](O)C[C@H]2[C@H](O)/C=C/C(=O)O1` [Brefeldin A, reference compound], the “effect on basal and Arylquin 1-inducible Par-4 secretion” value with Par-4 secretion was “inhibited basal as well as Arylquin 1-inducible Par-4 secretion”. `CN(C)c1ccc2cc(-c3ccccc3)c(N)nc2c1` [Arylquin 7, N^7,N^7-Dimethyl-3-phenylquinoline-2,7-diamine] had a melting point of 123 to 125 °C. For the molecule `CN(C)c1ccc2cc(-c3ccccc3F)c(SCC(=O)NCCOCCOCCNC(=O)CCCCC3SCC4NC(=O)NC43)nc2c1` (centres unmarked) [Biotinylated Arylquin 9, N-(2-(2-(2-(2-(7-(dimethylamino)-3-(2-fluorophenyl)quinolin-2-ylthio)acetamido)ethoxy)ethoxy)ethyl)-5-(2-oxohexahydro-1H-thieno[3,4-d]imidazol-4-yl)pentanamide], the Par-4 secretory properties result in the data set with Par-4 secretion is “retain Par-4 secretory properties”. The molecule `CN(C)c1ccc2cc(-c3ccccc3F)c(=O)[nH]c2c1` [Arylquin 4, 7-(dimethylamino)-3-(2-fluorophenyl)quinolin-2(1H)-one] had a melting point of 247 to 248 °C.

In turn, `Nc1nc2ccccc2cc1-c1ccccc1F` [Arylquin 8, 3-(2-fluorophenyl)quinolin-2-amine] came in with a melting point of 152 to 153 °C. Further, the “level of Par-4 secretion, structure-activity comparison among analogs” value in data set [1] is “highest levels of Par-4 secretion”. In the case of `COc1ccc(C2=N[C@@H](c3ccc(Cl)cc3)[C@@H](c3ccc(Cl)cc3)N2C(=O)N2CCNC(=O)C2)c(OC(C)C)c1` [Nutlin-3a, reference compound], the Par-4 secretion entry in data set [1] (MEF cells) was “stimulated Par-4 secretion at micromolar levels”.

In the case of `CN(C)c1ccc2cc(-c3ccccc3F)cnc2c1` [Arylquin 6, 3-(2-fluorophenyl)-N,N-dimethylquinolin-7-amine], the melting point lay within 142 to 144 °C. Besides, the “level of Par-4 secretion, structure-activity comparison among analogs” value in data set [1] is listed as “highest levels of Par-4 secretion”.

Molecule `CN(C)c1ccc2cc(-c3ccccc3F)c(=S)[nH]c2c1` [Arylquin 5, 7-(dimethylamino)-3-(2-fluorophenyl)quinoline-2(1H)-thione] returned a melting point of 251 to 253 °C.
